In patent US20190329063A1, “METHOD FOR MODIFYING THE T[…] OF DRUGS” (priority 2016, published 2019):

Experiments:
[1] = tested on: subjects medicated with MPH; experiment: Conjunctive continuous performance task (CPT) after half dose MPH with cognitive induction or music control; type: in vivo, human; conditions: half dose MPH PO
Source text: Reference is now made to FIGS. 7A-7B, depicting validation experiments for testing whether FPC improves attention functions of subjects medicated with MPH, according to some embodiments of the invention. In some embodiments, the experiment includes three sessions. In some embodiments, in the first session 702, the subjects performed a conjunctive continuous performance task (CPT, Shalev et al., 2011). In some embodiments, this test yields measures of sustained attention, which are generalized across different sensory modalities.
According to some embodiments, in the second and the third sessions 706, the subjects took half of their prescribed drug 708 dose by per os (PO) administration. In some embodiments, in the first epoch they went through either a cognitive induction condition 714 during which they performed the NeuroTrax tasks or a control condition 712 during which they listened to a piece of their favorite music. In some embodiments, these 30 min conditions were followed by a 20-minutes rest epoch 716, for example to allow for the testing of an enduring effect of the FPC. […]
According to some exemplary embodiments, FPC effect was measured for the sustained attention measures of average 722 and standard deviation 724 response time, which show high reliability and validity (Shalev et al., 2011). […]

[2] = tested on: ADHD patients; experiment: Real-time fMRI neurofeedback of right-IFG after Ritalin IR with CPTi, CPT and Strooplike tasks; type: in vivo, human; conditions: 0.1-0.2 mg/kg Ritalin IR; right-IFG Up vs Down regulation; 24 ADHD patients
[3] = after administration of Ritalin IR; cited from earlier work

COC(=O)C(c1ccccc1)C1CCCCN1 (stereo not shown) [MPH, Methylphenidate]
improvement of sustained attention measures, cognitive induction task relative to control task (music) ([1]; two subjects): higher
sustained attention measures of average and standard deviation response time (CPT) ([1]; two subjects (males)): improved
effects on sustained attention (CPT task) and response inhibition (CPTi task) following the up regulation condition [2]: substantially larger effects
estimated peak concentration of MPH in brain blood plasma (time) [3]: 45 min
